Measured values from US20150253323A1, “METHODS AND KITS FOR HIGH THROUGHPUT SCREENING FOR COMPOUNDS TARGETING DNA-BINDING AND RNA-BINDING PROTEINS” (The Florida International University Board of Trustees, priority 2014, published 2015).
Entries after “also recorded” stand apart in the source; their conditions may differ. Counter-ions that a name gives are not always drawn. Like-named read-outs stand apart in the source and are kept apart here.

How the values were obtained:
3T3-L1 cells = experiment: Oil Red O staining of differentiated 3T3-L1 cells (adipogenesis); format: cell-based, mouse
Protocol: Mouse pre-adipocytes (3T3-L1 cells) were a gracious gift from Dr Jun Liu at Mayo Clinic. 3T3-L1 cells were maintained in DMEM supplemented with 10% FBS, 100 U/ml penicillin, 100 μg/ml streptomycin and 5 μg/ml plasmocin. The cells were grown under normal culture conditions of 5% CO2 and humidity. Cells were maintained for a minimum of three passages in linear growth prior to differentiation. To differentiate the 3T3-L1 pre-adipocytes into adipocytes, we used the protocol previously described by Zebisch et al. (Zebisch, K., et al. (2012)). Briefly, 3T3-L1 pre-adipocytes were sub-cultured in DMEM supplemented with 5% newborn calf serum, 100 U/ml penicillin, 100 μg/ml streptomycin and 5 μg/ml plasmocin (Basal Media 1—BM1). The cells were then plated at 6×10^5 cells per dish in 35-mm dishes, 3×10^5 cells per well in a 12-well plate, 1.5×10^5 cells in a 24-well plate or 3.0×10^4 cells per well in a 96-well plate. The cells were grown to confluency with BM1 replacement every other day. Following 48 h of confluency, 3T3-L1 cells were treated with Differentiation medium 1 (DM1), which is BM1 supplemented with […] iso-butyl-methylxanthine, 0.25 μM dexamethasone, 1 μg/ml insulin and 2 μg/ml rosiglitazone. After 48 h, the medium was replaced with differentiation medium 2 (DM2); this is BM1 supplemented with 1 μg/ml insulin. On the seventh day, the cells were placed in DMEM with FBS. The cells were cultured to the date indicated in the experiments below with media changes every other day. The presence of adipogenesis was confirmed by microscopic detection of adipose bodies in the cells. For our experiments, only cultures with >80% differentiation were used.
Following differentiation and drug treatment, Oil Red O staining was used to qualitatively and quantitatively assess the level of neutral lipids in the differentiated cells. For qualitative assessment by phase microscopy, cells were washed twice in PBS and then fixed with 10% formalin for 30 min at room temperature. Oil Red O was reconstituted at 300 mg per 100 ml of isopropanol. The Oil Red O solution was prepared for staining by adding 20 ml of deionized water to 30 ml of the Oil Red O stock solution and filtered. The cells were then incubated for 5 min in 60% isopropanol. The Oil Red O working solution was then added to cells for 5 min. The monolyers were then rinsed clean with deionized water. The cells were then visualized using phase microscopy on the EVOS XL Core microscope. For quantitative assessment of adipogenesis in 96-well formats, cells were lysed in dimethylsulfoxide (DMSO) following the water wash of Oil Red O stained cells. The DMSO released the intracellular Oil Red O into the solution. The absorbance (492 nm) was measured using the BioTek Synergy H1 plate reader.

HMGA2 = experiment: In-cell western analysis of HMGA2 expression in 3T3-L1 cells; format: cell-based, mouse; conditions: normalized to TO-PRO-3, FIGS. 17F and G
Protocol: Specific protein levels were analyzed using in-cell western technology (Egorina, E. M., et al (2006)). During differentiation and drug administration, 3T3-L1 cells were fixed in 4% paraformaldehyde in PBS for 25 min at room temperature. Pre-adipocytes were quenched by washing the cells in 100 mM glycine for 5 min at room temperature. The cells were permeabilized by incubating the cells in 0.2% Triton X-100 in PBS for 30 min at room temperature. The cells were then blocked using LICOR Odyssey Blocking Buffer (LI-COR Biosciences, 927-40100) for 1 h at room temperature. Cells were then incubated with a primary antibody for HMGA2 (Cell Signaling Technologies #5269) at a 1:500 dilution in LI-COR Odyssey Blocking Buffer supplemented with 0.1% Tween-20 for 2.5 h at room temperature. The cells were washed in 0.1% Tween in PBS. Secondary antibodies (IRDye 800CW anti-rabbit, LI-COR Biosciences, 926-32211) were incubated at a dilution of 1:1000 in LI-COR Blocking Buffer supplemented with 0.1% Tween-20 for 1 h. Concurrent to the addition of secondary antibody TO-PRO-3 (Invitrogen) was added at a 1:1000 dilution as a normalization control for cell number and incubated for 1 h. The cells were washed again in 0.1% Tween-20 in PBS. Plates were then scanned on the LICOR Biosciences Odyssey CLx Infrared Imaging System and quantified using the LI-COR in-cell western analysis in Image Studio.

HMGA2-FL814 interaction = experiment: PDI-ELISA for HMGA2 binding to DNA oligomer FL814; design: species or system mammalian; conditions: for OD450 of the PDI-ELISA in the presence of the compound: 100 nM compound, 100 nM FL814, 1 μM HMGA2, 2×SSCT, OD450 without drug 1.44; for inhibition of HMGA2-FL814 interactions: compound at 100 nM in 2×SSCT, FIG. 12 / Table 1; for IC50: netropsin titration
FL814 = experiment: Competition dialysis assay, free FL814; format: binding
Protocol: (§1) The competition dialysis assays were carried out according to previously published procedures (Ren, J. and Chaires, J. B. (1999)). Briefly, a volume of 0.3 ml of FL814 (3 μM) or the HMGA2-FL814 complex (3 μM) was pipeted into a separate 0.3 ml disposable dialyzer. The dialysis units were then placed into a beaker with 200 ml of 2×SSCT containing 0.73 μM of TMPyP4. The dialysis was allowed to equilibrate with continuous stirring of 72 h at room temperature (24° C.). After the dialysis, the free, bound and total concentrations of TMPyP4 were determined spectrophotometrically.

HMGA2-FL814 complex = target: T1, HMGA2-FL814 complex (Mus musculus, UniProt P52927); experiment: Competition dialysis assay, HMGA2-FL814 complex; conditions: 3 μM complex dialyzed against 0.73 μM TMPyP4, 72 h, 2×SSCT
T1 sequence (P52927 2-108 limits assumed): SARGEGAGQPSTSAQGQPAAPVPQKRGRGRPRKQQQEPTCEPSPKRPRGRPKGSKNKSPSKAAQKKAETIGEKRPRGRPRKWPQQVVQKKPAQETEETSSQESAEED
Protocol: as §1

Row | Compound | inhibition of differentiation of 3T3-L1 cells to adipocytes (3T3-L1 cells; FIGS. 17A-17G) | inhibition at 10 µM (3T3-L1 cells; Mus musculus, 10 μM, Oil red O staining, differentiated 3T3-L1 cells, read-out: inhibition of neutral lipid production) | IC50 (3T3-L1 cells; Mus musculus, 3T3-L1, Oil Red O absorbance 492 nm, read-out: inhibition IC50 of neutral lipids in the differentiated cells) | HMGA2 expression in fully differentiated 3T3-L1 cells in the presence of the compound (HMGA2) | OD450 of the PDI-ELISA in the presence of the compound (HMGA2-FL814 interaction) | inhibition of HMGA2-DNA interactions (OD450 back to background) (HMGA2-FL814 interaction; 500 nM or 1 μM netropsin, FIG. 10A, dihydrochloride) | inhibition of HMGA2-FL814 interactions (HMGA2-FL814 interaction; dihydrochloride) | inhibition of HMGA2-FL814 interactions (HMGA2-FL814 interaction; listed as netropsin, dihydrochloride) | IC50 (HMGA2-FL814 interaction; FIG. 10B, 0.5 μM HMGA2, read-out: inhibitory IC50 of HMGA2 binding to FL814) | IC50 (HMGA2-FL814 interaction; FIG. 11B, three titration experiments, read-out: apparent inhibitory IC50 of HMGA2 binding to FL814) | enhancement of HMGA2 binding to double stranded oligomer (FL842/FL843) without loop (HMGA2-FL814 interaction; 100 nM annealing product of FL842 and FL843, 1 μM HMGA2, FIG. 15B) | enhancement of HMGA2 binding to FL814 (OD450) (HMGA2-FL814 interaction; titration, 100 nM FL814, 1 μM HMGA2, FIG. 14) | binding to FL814 (FL814; 3 μM FL814 dialyzed against 0.73 μM TMPyP4, 72 h, 2×SSCT) | binding stoichiometry to FL814 (FL814; competition dialysis, 0.73 μM TMPyP4) | binding to the FL814-HMGA2 complex (HMGA2-FL814 complex)
1 | Cn1cc(NC(=O)c2cc(NC(=O)CN=C(N)N)cn2C)cc1C(=O)NCCC(=N)N [Netropsin, netropsin dihydrochloride] | strongly inhibited | > 50% | 7900 ± 1100 nM | expressed | 0.152 | complete inhibition; also recorded: completely inhibited | completely inhibit | potently inhibit | ~10 nM | 9.3 ± 0.78 nM |  |  |  |  | 
2 | C[n+]1ccc(-c2c3nc(c(-c4cc[n+](C)cc4)c4ccc([nH]4)c(-c4cc[n+](C)cc4)c4nc(c(-c5cc[n+](C)cc5)c5ccc2[nH]5)C=C4)C=C3)cc1 [TMPyP4] |  |  |  |  | Very high |  |  |  |  |  | able to enhance the binding; also recorded: enhancement | dramatically enhance; also recorded: significantly enhanced | tightly | two molecules of TMPyP4 bind to one molecule of FL814 | tightly
